Test results published in ChEMBL document CHEMBL1201862, “PubChem BioAssay data set” (2004).
Several values for one entry are separate records, joined by “and”; a condition that tells them apart may be missing. Equal values may be shown once.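 Exposure lasted 48 hours, with cells grown in 96-well plates and compounds tested at five concentrations. Abbreviation: GI50, concentration required for 50% inhibition of growth.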 Activity calls are given as the source filed them. No stated cut-off is given here; in the data, active = GI50 up to about 1.1 µM and inactive = higher.

Columns and labels:
Experiment in all cases: DTP human tumour cell line panel, 48 h
SK-MEL-5 = tested on: SK-MEL-5
CAKI-1 = tested on: CAKI-1
XF498 = tested on: XF498
M14 = tested on: M14
OVCAR-3 = tested on: OVCAR-3
786-0 = tested on: 786-0
HOP-18 = tested on: HOP-18
A549 = tested on: A549
HOP-62 = tested on: HOP-62
HCC 2998 = tested on: HCC 2998
TK-10 = tested on: TK-10
NCI-H522 = tested on: NCI-H522
DMS-114 = tested on: DMS-114
SN12C = tested on: SN12C
SF-295 = tested on: SF-295
UO-31 = tested on: UO-31
SNB-19 = tested on: SNB-19
NCI-H226 = tested on: NCI-H226
UACC-257 = tested on: UACC-257
SW-620 = tested on: SW-620
SNB-78 = tested on: SNB-78
KM-20L2 = tested on: KM-20L2
SK-MEL-2 = tested on: SK-MEL-2
SF-268 = tested on: SF-268
KM12 = tested on: KM12
SNB-75 = tested on: SNB-75
RXF 631 = tested on: RXF 631
HCT-15 = tested on: HCT-15
OVCAR-8 = tested on: OVCAR-8
K562 = tested on: K562
HT-29 = tested on: HT-29
NCI-H23 = tested on: NCI-H23
MOLT-4 = tested on: MOLT-4
OVCAR-4 = tested on: OVCAR-4
LXFL 529 = tested on: LXFL 529
COLO 205 = tested on: COLO 205
U-251 = tested on: U-251
LOX IMVI = tested on: LOX IMVI
DMS-273 = tested on: DMS-273
IGROV-1 = tested on: IGROV-1
ACHN = tested on: ACHN
OVCAR-5 = tested on: OVCAR-5
HCT-116 = tested on: HCT-116
RPMI-8226 = tested on: RPMI-8226
CCRF-CEM = tested on: CCRF-CEM
SK-OV-3 = tested on: SK-OV-3
A498 = tested on: A498
EKVX = tested on: EKVX
RXF 393 = tested on: RXF 393
Malme-3M = tested on: Malme-3M
NCI-H460 = tested on: NCI-H460
SF-539 = tested on: SF-539
UACC-62 = tested on: UACC-62
HL-60 = tested on: HL-60
SK-MEL-28 = tested on: SK-MEL-28
SR = tested on: SR
DLD-1 = tested on: DLD-1
HOP-92 = tested on: HOP-92
M19-MEL = tested on: M19-MEL

Structure (SMILES): Cn1c(=O)nc2n(-c3cccc(Cl)c3)c3ccccc3nc-2c1=O
- GI50 (SK-MEL-5): 10.5 µM (inactive)
- GI50 (CAKI-1): 33.7 µM (inactive)
- GI50 (XF498): 19.9 µM (inactive)
- GI50 (M14): 7.93 µM (inactive)
- GI50 (OVCAR-3): 2.45 µM (inactive)
- GI50 (786-0): 15.6 µM (inactive)
- GI50 (HOP-18): 12.2 µM (inactive)
- GI50 (A549): 11.4 µM (inactive)
- GI50 (HOP-62): 28.6 µM (inactive)
- GI50 (HCC 2998): 10.7 µM (inactive)
- GI50 (TK-10): 17 µM (inactive)
- GI50 (NCI-H522): 15.1 µM (inactive)
- GI50 (DMS-114): 6.34 µM (inactive)
- GI50 (SN12C): 12.8 µM (inactive)
- GI50 (SF-295): 16.6 µM (inactive)
- GI50 (UO-31): 34.9 µM (inactive)
- GI50 (SNB-19): > 10 µM (inactive)
- GI50 (NCI-H226): 22 µM (inactive)
- GI50 (UACC-257): 10.9 µM (inactive)
- GI50 (SW-620): 11.2 µM (inactive)
- GI50 (SNB-78): 23.7 µM (inactive)
- GI50 (KM-20L2): 5.92 µM (inactive)
- GI50 (SK-MEL-2): 17.1 µM (inactive)
- GI50 (SF-268): 18.2 µM (inactive)
- GI50 (KM12): 11.2 µM (inactive)
- GI50 (SNB-75): 15.3 µM (inactive)
- GI50 (RXF 631): 13.5 µM (inactive)
- GI50 (HCT-15): 13 µM
- GI50 (OVCAR-8): 18 µM (inactive)
- GI50 (K562): 14.1 µM (inactive)
- GI50 (HT-29): 4.53 µM (inactive)
- GI50 (NCI-H23): 5.9 µM (inactive)
- GI50 (MOLT-4): 18.5 µM (inactive)
- GI50 (OVCAR-4): 11.6 µM (inactive)
- GI50 (LXFL 529): 18.6 µM (inactive)
- GI50 (COLO 205): 4.11 µM (inactive)
- GI50 (U-251): 15.3 µM (inactive)
- GI50 (LOX IMVI): 18.7 µM (inactive)
- GI50 (DMS-273): 9.55 µM (inactive)
- GI50 (IGROV-1): 24.8 µM (inactive)
- GI50 (ACHN): 3.63 µM (inactive)
- GI50 (OVCAR-5): 22.5 µM (inactive)
- GI50 (HCT-116): 13.8 µM (inactive)
- GI50 (RPMI-8226): 15.5 µM (inactive)
- GI50 (CCRF-CEM): 19 µM (inactive)
- GI50 (SK-OV-3): 78.9 µM (inactive)
- GI50 (A498): 30.5 µM (inactive)
- GI50 (EKVX): 12 µM (inactive)
- GI50 (RXF 393): 21.5 µM (inactive)
- GI50 (Malme-3M): 3.5 µM (inactive)
- GI50 (NCI-H460): 6.4 µM (inactive)
- GI50 (SF-539): 16 µM (inactive)
- GI50 (UACC-62): 2.68 µM (inactive)

Structure (SMILES): CC1OC(OC23C(=O)CC(C)(O)CC2(O)C=CC2=C3C(=O)c3ccc(C4CC(OC5CCC(OC6CC(O)C(O)C(C)O6)C(C)O5)C(O)C(C)O4)c(O)c3C2=O)CCC1O (stereo unspecified)
- GI50 (SK-MEL-5): 19 µM (inactive) and 16.1 µM (inactive)
- GI50 (CAKI-1): 19.1 µM (inactive) and 19.8 µM (inactive)
- GI50 (XF498): 18.2 µM (inactive) and 18.9 µM (inactive)
- GI50 (M14): 18.2 µM (inactive) and 13.8 µM (inactive)
- GI50 (786-0): 17.4 µM (inactive) and 15.8 µM (inactive)
- GI50 (HOP-18): 17.5 µM (inactive) and 17.1 µM (inactive)
- GI50 (A549): 29.6 µM (inactive) and 25.1 µM (inactive)
- GI50 (HOP-62): 27 µM (inactive) and 21.5 µM (inactive)
- GI50 (HCC 2998): 13.9 µM (inactive) and 16.2 µM (inactive)
- GI50 (TK-10): 21.6 µM (inactive) and 17.7 µM (inactive)
- GI50 (NCI-H522): 1.94 µM (inactive) and 2.05 µM (inactive)
- GI50 (SN12C): 18.3 µM (inactive) and 16.5 µM (inactive)
- GI50 (UO-31): 18 µM (inactive) and 18.4 µM (inactive)
- GI50 (NCI-H226): 19.5 µM (inactive) and 18.6 µM (inactive)
- GI50 (UACC-257): 17.9 µM (inactive) and 15.2 µM (inactive)
- GI50 (SW-620): 4.86 µM (inactive) and 3.39 µM (inactive)
- GI50 (SNB-78): 17.3 µM (inactive) and 17.7 µM (inactive)
- GI50 (HL-60): 4.42 µM (inactive) and 6.03 µM (inactive)
- GI50 (KM-20L2): 19.1 µM (inactive) and 19.7 µM (inactive)
- GI50 (SK-MEL-2): 16.7 µM (inactive) and 16.3 µM (inactive)
- GI50 (SF-268): 17 µM (inactive) and 16.4 µM (inactive)
- GI50 (KM12): 17.5 µM (inactive) and 14.4 µM (inactive)
- GI50 (SNB-75): 16.3 µM (inactive) and 16.9 µM (inactive)
- GI50 (RXF 631): 12.9 µM (inactive) and 20.1 µM (inactive)
- GI50 (SK-MEL-28): 15.5 µM (inactive) and 14.3 µM (inactive)
- GI50 (SR): > 100 µM (inactive)
- GI50 (K562): 14.5 µM (inactive) and 9.4 µM (inactive)
- GI50 (HT-29): 12.8 µM (inactive) and 19.5 µM (inactive)
- GI50 (NCI-H23): 16.4 µM (inactive) and 18.5 µM (inactive)
- GI50 (MOLT-4): 5.71 µM (inactive)
- GI50 (OVCAR-4): 16.4 µM (inactive) and 19.1 µM (inactive)
- GI50 (LXFL 529): 15.4 µM (inactive) and 11.5 µM (inactive)
- GI50 (COLO 205): 3.79 µM (inactive) and 2.33 µM (inactive)
- GI50 (U-251): 16 µM (inactive) and 17.1 µM (inactive)
- GI50 (DLD-1): 11.1 µM (inactive) and 13.6 µM (inactive)
- GI50 (IGROV-1): 16.5 µM (inactive) and 16.4 µM (inactive)
- GI50 (ACHN): 17 µM (inactive) and 15.7 µM (inactive)
- GI50 (OVCAR-5): 19.1 µM (inactive) and 20.6 µM (inactive)
- GI50 (RPMI-8226): 13.2 µM (inactive) and 10 µM (inactive)
- GI50 (CCRF-CEM): 6.65 µM (inactive)
- GI50 (SK-OV-3): 28.1 µM (inactive) and 17.9 µM (inactive)
- GI50 (EKVX): 18.7 µM (inactive) and 17.7 µM (inactive)
- GI50 (Malme-3M): 3.02 µM (inactive) and 1.57 µM (inactive)
- GI50 (NCI-H460): 19.4 µM (inactive) and 17.6 µM (inactive)
- GI50 (SF-539): 17.7 µM (inactive) and 17.3 µM (inactive)
- GI50 (UACC-62): 13.8 µM (inactive) and 16.3 µM (inactive)

Structure (SMILES): CCCN(CCCCC(NC(C)=O)C(=O)NCc1ccccc1)C(=O)NCCCl (stereo unspecified)
- GI50 (SK-MEL-5): > 100 µM (inactive)
- GI50 (HOP-92): > 100 µM (inactive)
- GI50 (CAKI-1): > 100 µM (inactive)
- GI50 (XF498): > 100 µM (inactive)
- GI50 (M14): > 100 µM (inactive)
- GI50 (OVCAR-3): > 100 µM (inactive)
- GI50 (786-0): > 100 µM (inactive)
- GI50 (HOP-18): > 100 µM (inactive)
- GI50 (A549): > 100 µM (inactive)
- GI50 (HOP-62): > 100 µM (inactive)
- GI50 (HCC 2998): > 100 µM (inactive)
- GI50 (TK-10): > 100 µM (inactive)
- GI50 (NCI-H522): > 100 µM (inactive)
- GI50 (DMS-114): > 100 µM (inactive)
- GI50 (SN12C): > 100 µM (inactive)
- GI50 (SF-295): > 100 µM (inactive)
- GI50 (UO-31): > 100 µM (inactive)
- GI50 (SNB-19): > 100 µM (inactive)
- GI50 (NCI-H226): > 100 µM (inactive)
- GI50 (UACC-257): > 100 µM (inactive)
- GI50 (SW-620): > 100 µM (inactive)
- GI50 (HL-60): > 100 µM (inactive)
- GI50 (KM-20L2): > 100 µM (inactive)
- GI50 (SF-268): > 100 µM (inactive)
- GI50 (KM12): > 100 µM (inactive)
- GI50 (SNB-75): > 100 µM (inactive)
- GI50 (RXF 631): > 100 µM (inactive)
- GI50 (HCT-15): > 100 µM
- GI50 (SK-MEL-28): > 100 µM (inactive)
- GI50 (M19-MEL): > 100 µM (inactive)
- GI50 (SR): > 100 µM (inactive)
- GI50 (OVCAR-8): > 100 µM (inactive)
- GI50 (K562): > 100 µM (inactive)
- GI50 (HT-29): > 100 µM (inactive)
- GI50 (NCI-H23): > 100 µM (inactive)
- GI50 (MOLT-4): > 100 µM (inactive)
- GI50 (OVCAR-4): > 100 µM (inactive)
- GI50 (LXFL 529): > 100 µM (inactive)
- GI50 (COLO 205): > 100 µM (inactive)
- GI50 (U-251): > 100 µM (inactive)
- GI50 (DMS-273): > 100 µM (inactive)
- GI50 (DLD-1): > 100 µM (inactive)
- GI50 (ACHN): > 100 µM (inactive)
- GI50 (HCT-116): 59.2 µM (inactive)
- GI50 (RPMI-8226): > 100 µM (inactive)
- GI50 (CCRF-CEM): > 100 µM (inactive)
- GI50 (EKVX): > 100 µM (inactive)
- GI50 (RXF 393): > 100 µM (inactive)
- GI50 (Malme-3M): > 100 µM (inactive)
- GI50 (NCI-H460): > 100 µM (inactive)
- GI50 (SF-539): > 100 µM (inactive)
- GI50 (UACC-62): > 100 µM (inactive)
